Results from PMC9694334, “Synthesis and Biological Evaluation of a Fused Structure of Indolizine and Pyrrolo[1,2-c]pyrimidine: Identification of Its Potent Anticancer Activity against Liver Cancer Cells” (Pharmaceuticals, 2022).

Experiments:
Huh7 cells = experiment: Cell viability assay (MTS) in Huh7 cells; assay type: cell-based; conditions: Homo sapiens, Huh-7, mean, n = 5, 72 h for 5r (Figure 2)
Experimental: HepG2, Huh7, H1299, HT29, AGS and A549 cells were purchased from the Korean Cell Line Bank (Seoul, Korea) and HaCaT cells were obtained from Prof. Sohee Kwon (Yonsei University, Korea). Liver cancer cells (HepG2), human keratinocyte cells (HaCaT), and lung cancer cells (A549) were grown in DMEM high-glucose medium, liver cancer cells (Huh7) and non-small cell lung cancer cells (H1299) were grown in RPMI 1640, and gastric cancer cells (AGS) were grown in Coon’s modified F12 medium. All media were supplemented with 10% FBS, 100 Units/mL penicillin, and 100 μg/mL streptomycin. All cells were incubated at 37 °C, 5% CO2 and 95% humidity.
Cell viability assay was conducted using Cell Titer 96® AQueous One Solution Cell proliferation Assay kit (Promega, Madison, WI, USA). Five cancer cells and HaCaT cells were plated in 96-well microplates with growth medium for 24 h. When cell confluency reached ~30%, cells were treated with DMSO (vehicle) and test compounds. The medium and test compounds were replaced every 24 h. To measure cell viability, the cells were incubated with MTS solution for 1 h. The absorbance was measured by using Infinite M200 microplate reader (Tecan, Männedorf, Switzerland) at 490 nm.
Figure 2 Effect of 5r on cell viability in HepG2, Huh7, AGS, H1299, A549, HaCaT, NIH3T3, and HEK293T cells. (A–H) HepG2, Huh7, AGS, H1299, A549, HaCaT, NIH3T3, and HEK293T cells were cultured with 5r at the indicated concentrations for 72 h, and medium was replaced every 24 h with freshly added 5r. Cell viability was measured by MTS analysis (mean ± S.D., n = 5). * p < 0.05, ** p < 0.01, *** p < 0.001.

caspase-3 = experiment: Caspase-3 activity assay in Huh7 cells; assay type: cell-based; conditions: 3 µM 5r for 24 h, Figure 4B
Experimental: HepG2 and Huh7 cells were plated in 96-black-well plate to about 40% confluence, and then 5r was treated for 24 h. To assess activity of caspase-3, the growth medium was changed with 100 μL of PBS containing 1 μM caspase-3 substrate, NucView 488, and incubated at room temperature. After 20 min, 1 μM Hoechst 33342 was treated to stain the cells. Activity of caspase-3 was suppressed by Ac-DEVD-CHO, a selective caspase-3 inhibitor. FLUOstar Omega microplate reader (BMG Labtech, Ortenberg, Germany) was used to assess the fluorescence of NucView 488 and Hoechst, and Lionheart FX Automated Microscope (BioTek, Winooski, VT, USA) was used to acquire the fluorescence microscopy images.
Figure 4 Effect of 5r on activity of caspase-3 and cleavage of PARP in HepG2 and Huh7 cells. (A,B) HepG2 and Huh7 cells were incubated with 3 µM 5r for 24 h and then incubated with 1 µM caspase-3 substrate (green) and 1 µM Hoechst 33,342 (blue) for 20 min before image acquisition. (C,D) Cells were cultured with 5r at the indicated concentrations for 24 h and then 1 μM caspase-3 substrate was treated for 20 min. Caspase-3 was inhibited by 20 μM Ac-DEVD-CHO (mean ± S.D., n = 3). (E,F) Cells were cultured with 5r at the indicated concentrations for 24 h, and expression level of PARP, cleaved-PARP and β-actin were measured by Western blot analysis. […]

- IC50 (Huh7 cells): 0.1 µM
SMILES: N#Cc1c2c3cccn3c(-c3ccccc3O)nc2n2ccccc12 [Compound 5r, 5-(2-Hydroxyphenyl)pyrrolo[1′,2′:1,6]pyrimido[5,4-b]indolizine-12-carbonitrile]
- Caspase-3 activity in Huh7 cells (caspase-3): potently increased caspase-3 activity
